Measured values taken from patent US9814704B2, “Substituted pyrrolo[2,3-b]pyridines as MLK inhibitors” (The University of Rochester, priority 2008, dated 2017).
pIC50: −log10 of the molar value.

Molecular target: MLK3 (Homo sapiens (Human), UniProt Q16584)
Test: Radiometric Filter Plate MLK3 Assay
Format: biochemical
Conditions: 200 ng (130 nM) MLK3, 1 μM inactive MKK7b, 2 μM cold ATP (Km), 33P ATP, twenty minute incubation; read-out: MK3 IC50
Protocol: Radiometric Filter Plate MLK3 Assay
After a twenty minute incubation, the reactions were washed through filter plates and read on a scintillation counter. Results are shown in Table 4 below, in which +++ indicates ≦0.1 μM, ++ indicates >0.1 μM and ≦1 μM, and + indicates >1 μM.

Chain of MLK3 (Q16584 whole entry): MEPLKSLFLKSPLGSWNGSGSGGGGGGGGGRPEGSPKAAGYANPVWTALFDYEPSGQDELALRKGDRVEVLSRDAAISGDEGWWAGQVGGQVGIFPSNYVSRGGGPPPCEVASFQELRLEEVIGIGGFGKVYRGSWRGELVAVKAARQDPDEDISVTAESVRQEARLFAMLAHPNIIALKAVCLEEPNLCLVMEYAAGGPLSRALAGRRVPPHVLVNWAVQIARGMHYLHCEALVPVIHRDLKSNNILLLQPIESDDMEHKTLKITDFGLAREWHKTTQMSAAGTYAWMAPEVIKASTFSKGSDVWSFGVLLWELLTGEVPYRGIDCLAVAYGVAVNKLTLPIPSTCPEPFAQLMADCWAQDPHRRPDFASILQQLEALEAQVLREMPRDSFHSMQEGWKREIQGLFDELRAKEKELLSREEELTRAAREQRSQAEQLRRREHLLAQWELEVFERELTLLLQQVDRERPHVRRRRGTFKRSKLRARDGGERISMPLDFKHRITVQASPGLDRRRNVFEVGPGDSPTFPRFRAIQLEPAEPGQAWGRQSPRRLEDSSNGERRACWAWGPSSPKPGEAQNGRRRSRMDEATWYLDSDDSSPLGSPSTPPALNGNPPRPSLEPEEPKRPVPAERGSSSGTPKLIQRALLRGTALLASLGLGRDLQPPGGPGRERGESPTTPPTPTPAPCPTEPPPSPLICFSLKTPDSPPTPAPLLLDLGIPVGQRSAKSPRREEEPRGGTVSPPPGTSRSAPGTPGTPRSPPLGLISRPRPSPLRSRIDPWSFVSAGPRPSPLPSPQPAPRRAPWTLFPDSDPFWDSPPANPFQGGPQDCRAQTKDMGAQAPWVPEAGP

SMILES | pIC50
COc1cc(-c2cnc3[nH]c(=O)n(-c4ccc5[nH]ccc5c4)c3n2)ccc1OCCN1CCOCC1 [Example 57, 1-(1H-indol-5-yl)-6-(3-methoxy-4-(2-morpholinoethoxy)phenyl)-1H-imidazo[4,5-b]pyrazin-2(3H)-one] | > 7.00
COc1cc(-c2cnc3[nH]c(=O)n(C4CCc5ccccc54)c3n2)cc(OC)c1OC (centres unmarked) [Example 101, 1-(2,3-dihydro-1H-inden-1-yl)-6-(3,4,5-trimethoxyphenyl)-1H-imidazo[4,5-b]pyrazin-2(3H)-one] | < 6.00
COc1cc(-c2cnc3[nH]c(=O)n(-c4ccc5[nH]ccc5c4)c3n2)ccc1O [Example 55, 6-(4-hydroxy-3-methoxyphenyl)-1-(1H-indol-5-yl)-1H-imidazo[4,5-b]pyrazin-2(3H)-one] | > 7.00
COc1cc(-c2cnc3ncn(-c4ccc5[nH]ccc5c4)c3n2)cc(OC)c1OC [Example 126, 1-(1H-indol-5-yl)-6-(3,4,5-trimethoxyphenyl)-1H-imidazo[4,5-b]pyrazine] | < 6.00
COc1cc(-c2cnc3c(c2)C(=Cc2cccc(C(N)=O)c2)C(=O)N3)cc(OC)c1OC [Example 132, 3-[2-oxo-5-(3,4,5-trimethoxy-phenyl)-1,2-dihydro-pyrrolo[2,3-b]pyridin-3-ylidenemethyl]-benzamide] | < 6.00
COc1cc(-c2cnc3[nH]c(=O)n(-c4ccc5[nH]ccc5c4)c3n2)cc(OC)c1O [Example 62, 6-(4-hydroxy-3,5-dimethoxyphenyl)-1-(1H-indol-5-yl)-1H-imidazo[4,5-b]pyrazin-2(3H)-one] | > 7.00
O=c1[nH]c2ncc(-c3ccc(O)cc3)nc2n1-c1ccc2cn[nH]c2c1 [Example 92, 6-(4-hydroxyphenyl)-1-(1H-indazol-6-yl)-1H-imidazo[4,5-b]pyrazin-2(3H)-one] | < 6.00
COc1cc(-c2cnc3[nH]cc(-c4ccc5[nH]ccc5c4)c3n2)ccc1OCCN1CCOCC1 [Example 39, 4-(2-(4-(7-(1H-indol-5-yl)-5H-pyrrolo[3,2-b]pyrazin-2-yl)-2-methoxyphenoxy)ethyl)morpholine] | > 7.00
COc1cc(OC)c(-c2cnc3[nH]c(=O)n(C4CCCC4)c3n2)c(OC)c1 [Example 94, 1-cyclopentyl-6-(2,4,6-trimethoxyphenyl)-1H-imidazo[4,5-b]pyrazin-2(3H)-one] | < 6.00
COc1cc(-c2cnc3[nH]c(=O)n(-c4ccc5[nH]c(C)cc5c4)c3n2)cc(OC)c1OC [Example 72, 1-(2-methyl-1H-indol-5-yl)-6-(3,4,5-trimethoxyphenyl)-1H-imidazo[4,5-b]pyrazin-2(3H)-one] | > 7.00
COc1cc(-c2cnc3[nH]c(=O)n(-c4ccc5[nH]ccc5c4)c3n2)cc(OC)c1OC [Example 40, 1-(1H-indol-5-yl)-6-(3,4,5-trimethoxyphenyl)-1H-imidazo[4,5-b]pyrazin-2(3H)-one] | > 7.00
COc1ccc(-c2cnc3[nH]c(=O)n(-c4ccc5[nH]ccc5c4)c3n2)cc1F [Example 49, 6-(3-fluoro-4-methoxyphenyl)-1-(1H-indol-5-yl)-1H-imidazo[4,5-b]pyrazin-2(3H)-one] | < 6.00
COc1cc(-c2cnc3c(c2)C(Cc2cccnc2)C(=O)N3)cc(OC)c1OC (centres unmarked) [Example 135, 3-pyridin-3-ylmethyl-5-(3,4,5-trimethoxy-phenyl)-1,3-dihydro-pyrrolo[2,3-b]pyridin-2-one] | < 6.00
O=c1[nH]c2ncc(-c3cc(Cl)cc(Cl)c3)nc2n1CC1CC1 [Example 80, 1-(cyclopropylmethyl)-6-(3,5-dichlorophenyl)-1H-imidazo[4,5-b]pyrazin-2(3H)-one] | < 6.00
O=c1[nH]c2ncc(-c3ccncc3)nc2n1-c1ccc2[nH]ncc2c1 [Example 88, 1-(1H-indazol-5-yl)-6-(pyridin-4-yl)-1H-imidazo[4,5-b]pyrazin-2(3H)-one] | < 6.00

Results, then the compound that gave them:

pIC50 | SMILES
> 7.00 | CNC(=O)c1ccc(-c2c[nH]c3ncc(-c4ccc(CN5CCN(C)CC5)cc4)cc23)cc1 [Example 165, N-methyl-4-{5-[4-(4-methyl-piperazin-1-ylmethyl)-phenyl]-1H-pyrrolo[2,3-b]pyridin-3-yl}-benzamide]
> 7.00 | CN1CCN(Cc2ccc(-c3c[nH]c4ncc(-c5ccc(C(N)=O)cc5)cc34)cc2)CC1 [Example 162, 4-{3-[4-(4-methyl-piperazin-1-ylmethyl)-phenyl]-1H-pyrrolo[2,3-b]pyridin-5-yl}-benzamide]
> 7.00 | CN1CCN(C(=O)c2cccc(-c3cnc4[nH]cc(-c5ccc6[nH]ccc6c5)c4c3)c2)CC1 [Example 147, {3-[3-(1H-indol-5-yl)-1H-pyrrolo[2,3-b]pyridin-5-yl]-phenyl}-(4-methyl-piperazin-1-yl)-methanone]
> 7.00 | CC(C)(C)OC(=O)N1CCN(C(=O)c2cccc(-c3cnc4[nH]cc(-c5ccc(C(N)=O)cc5)c4c3)c2)CC1 [Example 151, 4-{3-[3-(4-carbamoyl-phenyl)-1H-pyrrolo[2,3-b]pyridin-5-yl]-benzoyl}-piperazine-1-carboxylic acid tert-butyl ester]
> 7.00 | CN1CCN(Cc2ccc(-c3cnc4[nH]cc(-c5ccc(C(N)=O)cc5)c4c3)cc2)CC1=O [Example 158, 4-{5-[4-(4-methyl-3-oxo-piperazin-1-ylmethyl)-phenyl]-1H-pyrrolo[2,3-b]pyridin-3-yl}-benzamide]
< 6.00 | CN1CCN(Cc2ccc(-c3c[nH]c4ncc(-c5ccc6[nH]ccc6c5)cc34)cc2)CC1 [Example 163, 5-(1H-indol-5-yl)-3-[4-(4-methyl-piperazin-1-ylmethyl)-phenyl]-1H-pyrrolo[2,3-b]pyridine]
< 6.00 | CNC(=O)c1ccc(-c2c[nH]c3ncc(-c4cc(OC)c(OC)c(OC)c4)cc23)cc1 [Example 164, N-methyl-4-[5-(3,4,5-trimethoxy-phenyl)-1H-pyrrolo[2,3-b]pyridin-3-yl]-benzamide]
> 7.00 | CN1CCN(Cc2ccc(-c3cnc4[nH]cc(-c5ccc6[nH]ccc6c5)c4c3)cc2)CC1=O [Example 141, 4-{4-[3-(1H-indol-5-yl)-1H-pyrrolo[2,3-b]pyridin-5-yl]-benzyl}-1-methyl-piperazin-2-one]
> 7.00 | CN1CCN(Cc2cccc(-c3cnc4[nH]cc(-c5ccc(C(N)=O)cc5)c4c3)c2)CC1 [Example 156, 4-{5-[3-(4-methyl-piperazin-1-ylmethyl)-phenyl]-1H-pyrrolo[2,3-b]pyridin-3-yl}-benzamide]
> 7.00 | CC(=O)N1CCN(Cc2ccc(-c3cnc4[nH]cc(-c5ccc(C(N)=O)cc5)c4c3)cc2)CC1 [Example 157, 4-{5-[4-(4-acetyl-piperazin-1-ylmethyl)-phenyl]-1H-pyrrolo[2,3-b]pyridin-3-yl}-benzamide]
> 7.00 | CN(C)Cc1ccc(-c2cnc3[nH]cc(-c4ccc5[nH]ccc5c4)c3c2)cc1 [Example 33, 1-(4-(3-(1H-indol-5-yl)-1H-pyrrolo[2,3-b]pyridin-5-yl)phenyl)-N,N-dimethylmethanamine]

Same assay, conditions: read-out: MK3 IC50

SMILES | pIC50
COc1cc(-c2cnc3[nH]cc(-c4ccc5[nH]ccc5c4)c3n2)cc(OC)c1OC [Example 36, 7-(1H-indol-5-yl)-2-(3,4,5-trimethoxyphenyl)-5H-pyrrolo[3,2-b]pyrazine] | > 7.00
COc1cc(-c2cnc3c(c2)C(C)(C)C(=O)N3)cc(OC)c1OC [Example 120, 3,3-dimethyl-5-(3,4,5-trimethoxyphenyl)-1H-pyrrolo[2,3-b]pyridin-2(3H)-one] | 6.00 to 7.00
COc1cc(-c2cnc3[nH]c(=O)n(-c4ccccc4)c3n2)cc(OC)c1OC [Example 105, 1-phenyl-6-(3,4,5-trimethoxyphenyl)-1H-imidazo[4,5-b]pyrazin-2(3H)-one] | 6.00 to 7.00
COc1cc(-c2cnc3[nH]c(=O)n(-c4ccc5cn[nH]c5c4)c3n2)cc(OC)c1OC [Example 90, 1-(1H-indazol-6-yl)-6-(3,4,5-trimethoxyphenyl)-1H-imidazo[4,5-b]pyrazin-2(3H)-one] | 6.00 to 7.00
COc1cc(-c2cnc3c(c2)C2(CCCC2)C(=O)N3)cc(OC)c1OC [Example 121, 5′-(3,4,5-trimethoxyphenyl)spiro[cyclopentane-1,3′-pyrrolo[2,3-b]pyridin]-2′(1′H)-one] | 6.00 to 7.00
COc1ccc(-c2cnc3[nH]c(=O)n(-c4ccc(O)cc4)c3n2)cc1OC [Example 115, 6-(3,4-dimethoxyphenyl)-1-(4-hydroxyphenyl)-1H-imidazo[4,5-b]pyrazin-2(3H)-one] | 6.00 to 7.00
O=c1[nH]c2ncc(-c3ccc(O)cc3)nc2n1C1CCCC1 [Example 76, 1-cyclopentyl-6-(4-hydroxyphenyl)-1H-imidazo[4,5-b]pyrazin-2(3H)-one] | 6.00 to 7.00
COc1cc(-c2cnc3c(c2)C(Cc2ccccc2)(Cc2ccccc2)C(=O)N3)cc(OC)c1OC [Example 139, 3,3-dibenzyl-5-(3,4,5-trimethoxy-phenyl)-1,3-dihydro-pyrrolo[2,3-b]pyridin-2-one] | 6.00 to 7.00

Second part, the compound after the results:

pIC50 | SMILES
6.00 to 7.00 | COc1cc(-c2cnc3[nH]cc(-c4ccc(CNC(=O)CCc5ccccc5)cc4)c3c2)cc(OC)c1OC [Example 161, 3-phenyl-N-{4-[5-(3,4,5-trimethoxy-phenyl)-1H-pyrrolo[2,3-b]pyridin-3-yl]-benzyl}-propionamide]
6.00 to 7.00 | COc1cc(-c2cnc3[nH]cc(-c4ccc(CNC(=O)Cc5ccccc5)cc4)c3c2)cc(OC)c1OC [Example 160, 2-phenyl-N-{4-[5-(3,4,5-trimethoxy-phenyl)-1H-pyrrolo[2,3-b]pyridin-3-yl]-benzyl}-acetamide]
6.00 to 7.00 | CN(C)c1ccc(-c2cnc3[nH]cc(-c4ccc5[nH]ccc5c4)c3c2)cn1 [Example 13, 5-(3-(1H-indol-5-yl)-1H-pyrrolo[2,3-b]pyridin-5-yl)-N,N-dimethylpyridin-2-amine]
6.00 to 7.00 | CN(C)c1ccc(-c2cnc3[nH]cc(-c4ccc(N(C)C)nc4)c3c2)cn1 [Example 21, 5,5′-(1H-pyrrolo[2,3-b]pyridine-3,5-diyl)bis(N,N-dimethylpyridin-2-amine)]
